Measured values reported in paper PMC6271228, “Diethyl 2-(Phenylcarbamoyl)phenyl Phosphorothioates: Synthesis, Antimycobacterial Activity and Cholinesterase Inhibition” (Molecules, 2014).
In brackets after ≈: the same amount, converted by molar mass. Where two headings read alike, the source gives them in different places.

What was measured:
[1] = tested on: M. kansasii 6509/96 (clinically isolated); test: microbe, parasite or virus in culture; assay type: cell-based; details: Mycobacterium kansasii, 37 °C
BChE from equine serum = target: T1, BChE from equine serum (Equus caballus, UniProt P81908); test: BChE inhibition, modified Ellman's method; assay type: biochemical
T1 construct: butyrylcholinesterase from equine serum; from tissue; host or cells: equine serum
From the text: (§1) The ability of the tested compounds to inhibit AChE from electric eel (Electrophorus electricus L.) and BChE from equine serum was screened in vitro using modified Ellman’s method for the evaluation of cholinesterase activity. […] […]. These two standards were chosen due to their different structures. […]. The choice of these drugs with different mechanism of action can provide relevant results. All tested compounds expressed a good inhibitory activity with IC50s in low micromolar values.
(§2) The IC50 values were determined using the spectrophotometric Ellman’s method, which is a simple, rapid and direct method to determine the SH and -S-S- group content in proteins. This method is widely used for cholinesterase activity evaluation and screening of the efficiency of cholinesterase inhibitors. Cholinesterase activity is measured indirectly by quantifying the concentration of 5-thio-2-nitrobenzoic acid (TNB) ion formed in the reaction between the thiol reagent 5,5'-dithiobis-2-nitrobenzoic acid (DTNB) and thiocholine, a product of substrate hydrolysis by cholinesterase (i.e., acetylthiocholine, ATCh). All the tested compounds were dissolved in dimethyl sulfoxide (concentration 0.01 M) and then diluted in demineralised water (concentration 0.001 M and 0.0001 M). The Ellman’s method is slightly modified according to Zdrazilova et al.. Acetylcholinesterase was obtained from electric eel (Electrophorus electricus L.) and butyrylcholinesterase from equine serum.

AChE from electric eel = target: T2, AChE from electric eel (Electrophorus electricus, UniProt O42275); test: AChE inhibition, modified Ellman's method; assay type: biochemical, Electrophorus electricus L.
T2 construct: Acetylcholinesterase was obtained from electric eel (Electrophorus electricus L.); from tissue; host or cells: electric eel (Electrophorus electricus L.)
From the text: as §1, §2

M. kansasii My 235/80 = test: microbe, parasite or virus in culture; assay type: cell-based, Mycobacterium kansasii; details: for MIC: Mycobacterium kansasii, 37 °C
M. avium My 330/88 = test: microbe, parasite or virus in culture; assay type: cell-based, Mycobacterium avium; details: for MIC: Mycobacterium avium, 37 °C
[2] = tested on: Mycobacterium tuberculosis My 331/88 (H37Rv); test: microbe, parasite or virus in culture; assay type: cell-based
[3] = 168 h, 7 d, read-out: MIC M. kansasii 6509/96 7 d
[4] = 336 h, 14 d, read-out: MIC M. kansasii 6509/96 14 d
[5] = 504 h, 21 d, read-out: MIC M. kansasii 6509/96 21 d
[6] = MY235/80, 168 h, 7 d, read-out: MIC M. kansasii 235/80 7 d
[7] = MY235/80, 336 h, 14 d, read-out: MIC M. kansasii 235/80 14 d
[8] = MY235/80, 504 h, 21 d, read-out: MIC M. kansasii 235/80 21 d
[9] = MY330/88, 336 h, 14 d, read-out: MIC M. avium 330/88 14 d
[10] = MY330/88, 504 h, 21 d, read-out: MIC M. avium 330/88 21 d
[11] = 336 h, 14 d, 37 °C, read-out: MIC Mtb 331/88 (H37Rv) 14 d
[12] = 504 h, 21 d, 37 °C, read-out: MIC Mtb 331/88 (H37Rv) 21 d

T1 sequence (P81908 whole entry): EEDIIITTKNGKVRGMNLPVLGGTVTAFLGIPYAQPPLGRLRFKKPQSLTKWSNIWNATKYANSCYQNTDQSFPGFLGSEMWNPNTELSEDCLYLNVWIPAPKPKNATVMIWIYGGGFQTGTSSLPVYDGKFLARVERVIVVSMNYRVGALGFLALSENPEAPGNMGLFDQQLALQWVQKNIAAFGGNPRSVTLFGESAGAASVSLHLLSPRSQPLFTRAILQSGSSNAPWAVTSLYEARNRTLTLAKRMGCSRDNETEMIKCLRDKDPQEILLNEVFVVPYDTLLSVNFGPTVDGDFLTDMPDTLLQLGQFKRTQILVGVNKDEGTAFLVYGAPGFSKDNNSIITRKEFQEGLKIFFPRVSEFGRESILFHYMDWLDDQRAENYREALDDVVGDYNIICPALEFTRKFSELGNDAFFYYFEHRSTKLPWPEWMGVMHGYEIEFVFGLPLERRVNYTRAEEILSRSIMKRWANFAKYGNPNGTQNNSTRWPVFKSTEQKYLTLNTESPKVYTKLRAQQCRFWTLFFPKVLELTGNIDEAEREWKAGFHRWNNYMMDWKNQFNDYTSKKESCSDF
T2 sequence (O42275 24-633): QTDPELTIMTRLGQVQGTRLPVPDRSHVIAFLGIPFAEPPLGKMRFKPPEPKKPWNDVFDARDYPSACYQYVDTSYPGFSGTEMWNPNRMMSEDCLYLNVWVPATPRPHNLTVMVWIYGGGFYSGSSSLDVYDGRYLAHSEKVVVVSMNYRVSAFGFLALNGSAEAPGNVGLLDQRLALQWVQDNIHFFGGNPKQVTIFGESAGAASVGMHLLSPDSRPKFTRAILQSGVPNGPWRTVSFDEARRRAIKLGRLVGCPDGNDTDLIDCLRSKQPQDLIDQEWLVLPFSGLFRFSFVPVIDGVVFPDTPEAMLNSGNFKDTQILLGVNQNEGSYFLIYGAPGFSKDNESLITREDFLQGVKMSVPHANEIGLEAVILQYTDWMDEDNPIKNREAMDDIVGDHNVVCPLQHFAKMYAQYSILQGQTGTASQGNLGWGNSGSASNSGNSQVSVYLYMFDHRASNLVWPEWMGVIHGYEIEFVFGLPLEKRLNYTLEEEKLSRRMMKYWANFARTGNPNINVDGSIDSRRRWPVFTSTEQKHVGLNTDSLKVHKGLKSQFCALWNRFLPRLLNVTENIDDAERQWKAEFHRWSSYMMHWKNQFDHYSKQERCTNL

Structure (SMILES)	MIC [1, 3]	MIC [1, 4]	MIC [1, 5]	IC50 (BChE from equine serum)	IC50 (AChE from electric eel)	MIC (M. kansasii My 235/80; [6])	MIC (M. kansasii My 235/80; [7])	MIC (M. kansasii My 235/80; [8])	MIC (M. avium My 330/88; [9])	MIC (M. avium My 330/88; [10])	MIC [2, 11]	MIC [2, 12]	MICs for M. kansasii 235/80 (M. kansasii My 235/80; all time points)	MIC values against M. avium (M. avium My 330/88; all MIC values (14 and 21 d))	MIC ([2]; read-out: MIC against Mtb)
CCOP(=S)(OCC)Oc1cc(Cl)ccc1C(=O)Nc1cccc(Br)c1 [1v, O-{2-[(3-Bromophenyl)carbamoyl]-5-chlorophenyl} O,O-diethyl phosphorothioate]	32 µM (≈ 15.3 µg/mL)	125 µM (≈ 59.8 µg/mL)	250 µM (≈ 120 µg/mL)	14.9 ± 1 µM	9.98 ± 0.43 µM	32 µM (≈ 15.3 µg/mL)	125 µM (≈ 59.8 µg/mL)	250 µM (≈ 120 µg/mL)	500 µM (≈ 239 µg/mL)	500 µM (≈ 239 µg/mL)	32 µM (≈ 15.3 µg/mL)	32 µM (≈ 15.3 µg/mL)			
CCOP(=S)(OCC)Oc1cc(Cl)ccc1C(=O)Nc1ccc(Br)cc1 [1w, O-{2-[(4-Bromophenyl)carbamoyl]-5-chlorophenyl} O,O-diethyl phosphorothioate]	32 µM (≈ 15.3 µg/mL)	62.5 µM (≈ 29.9 µg/mL)	62.5 µM (≈ 29.9 µg/mL)	16.4 ± 0.2 µM	10.12 ± 0.08 µM	32 µM (≈ 15.3 µg/mL)	32 µM (≈ 15.3 µg/mL)	32 µM (≈ 15.3 µg/mL)	250 µM (≈ 120 µg/mL)	250 µM (≈ 120 µg/mL)	32 µM (≈ 15.3 µg/mL)	32 µM (≈ 15.3 µg/mL)			
NNC(=O)c1ccncc1 [INH, isoniazid, reference compound]	2 to 4 µM (≈ 0.274 to 0.549 µg/mL)	4 µM (≈ 0.549 µg/mL)	4 to 8 µM (≈ 0.549 to 1.1 µg/mL)			> 250 µM	> 250 µM	> 250 µM	> 250 µM	> 250 µM	0.5 to 1 µM (≈ 0.0686 to 0.137 µg/mL)	1 µM (≈ 0.137 µg/mL)			
CCOP(=S)(OCC)Oc1cc(Cl)ccc1C(=O)Nc1cccc(C(F)(F)F)c1 [1z, O-(5-Chloro-2-{[3-(trifluoromethyl)phenyl]carbamoyl}phenyl) O,O-diethyl phosphorothioate]	62.5 µM (≈ 29.2 µg/mL)	125 µM (≈ 58.5 µg/mL)	125 µM (≈ 58.5 µg/mL)	15 µM	11.4 ± 0.3 µM	32 µM (≈ 15 µg/mL)	125 µM (≈ 58.5 µg/mL)	250 µM (≈ 117 µg/mL)	500 µM (≈ 234 µg/mL)	500 µM (≈ 234 µg/mL)	32 µM (≈ 15 µg/mL)	62.5 µM (≈ 29.2 µg/mL)	≤ 250 µM		
CCOP(=S)(OCC)Oc1cc(Cl)ccc1C(=O)Nc1ccc(Cl)cc1 [1t, O-{5-Chloro-2-[(4-chlorophenyl)carbamoyl]phenyl} O,O-diethyl phosphorothioate]	32 µM (≈ 13.9 µg/mL)	62.5 µM (≈ 27.1 µg/mL)	62.5 µM (≈ 27.1 µg/mL)	13.8 ± 0.05 µM	10.8 ± 0.3 µM	32 µM (≈ 13.9 µg/mL)	32 µM (≈ 13.9 µg/mL)	32 µM (≈ 13.9 µg/mL)	125 µM (≈ 54.3 µg/mL)	125 µM (≈ 54.3 µg/mL)	32 µM (≈ 13.9 µg/mL)	32 µM (≈ 13.9 µg/mL)		≤ 250 µM	
CCOP(=S)(OCC)Oc1cc(Cl)ccc1C(=O)Nc1ccc(F)cc1 [1y, O-{5-Chloro-2-[(4-fluorophenyl)carbamoyl]phenyl} O,O-diethyl phosphorothioate]	62.5 µM (≈ 26.1 µg/mL)	250 µM (≈ 104 µg/mL)	500 µM (≈ 209 µg/mL)	8.67 ± 0.49 µM	11.6 ± 0.3 µM	62.5 µM (≈ 26.1 µg/mL)	250 µM (≈ 104 µg/mL)	500 µM (≈ 209 µg/mL)	125 µM (≈ 52.2 µg/mL)	250 µM (≈ 104 µg/mL)	32 µM (≈ 13.4 µg/mL)	32 µM (≈ 13.4 µg/mL)			
CCOP(=S)(OCC)Oc1ccc(Br)cc1C(=O)Nc1ccc(Cl)c(Cl)c1 [1c, O-{4-Bromo-2-[(3,4-dichlorophenyl)carbamoyl]phenyl} O,O-diethyl phosphorothioate]	62.5 µM (≈ 32.1 µg/mL)	125 µM (≈ 64.1 µg/mL)	125 µM (≈ 64.1 µg/mL)	18.8 ± 0.7 µM	14 ± 0.1 µM	62.5 µM (≈ 32.1 µg/mL)	250 µM (≈ 128 µg/mL)	500 µM (≈ 257 µg/mL)	500 µM (≈ 257 µg/mL)	500 µM (≈ 257 µg/mL)	4 µM (≈ 2.05 µg/mL)	4 µM (≈ 2.05 µg/mL)			4 µM (≈ 2.05 µg/mL)
CCOP(=S)(OCC)Oc1ccc(Cl)cc1C(=O)Nc1ccc(Br)cc1 [1n, O-{2-[(4-Bromophenyl)carbamoyl]-4-chlorophenyl} O,O-diethyl phosphorothioate]	250 µM (≈ 120 µg/mL)	500 µM (≈ 239 µg/mL)	500 µM (≈ 239 µg/mL)	15.1 ± 0.1 µM	9.32 ± 0.06 µM	250 µM (≈ 120 µg/mL)	500 µM (≈ 239 µg/mL)	500 µM (≈ 239 µg/mL)	500 µM (≈ 239 µg/mL)	500 µM (≈ 239 µg/mL)	32 µM (≈ 15.3 µg/mL)	32 µM (≈ 15.3 µg/mL)			
